{"source": "patent US8557767B2", "about": "“Synthetic apolipoprotein E mimicking polypeptides and methods of use” (UAB Research Foundation, priority 2007, dated 2013)", "key": {"[1]": {"system": "monocyte chemotaxis protein-1 (MCP-1)", "assay": "LPS-induced MCP-1 in HUVEC", "assay_type": "cell-based, human", "description": "(§1) The effect of the peptide on the inflammatory response of bacterial lipopolysaccaride (LPS), a potent inducer of cytokines and cell adhesion molecules was also examined."}, "[2]": {"system": "apo E null mice", "assay": "Atherosclerosis inhibition in apo E null mice, retroorbital administration, en face lesion analysis", "assay_type": "in vivo", "description": "Extent of lesion is analyzed by en face preparation and staininf with Oil Red O.\nAtherosclerosis inhibition studies in apo E null mice that develop atherosclerosis spontaneously were also performed. […] Lesion analysis was performed using the en face preparations. Sixteen week old mice would have well established lesions. […] Detailed studies on the mechanism of the inhibition of atherosclerosis are described below."}, "[3]": {"system": "VCAM-1", "assay": "LPS-induced VCAM-1 expression in HUVEC (Western blot)", "assay_type": "cell-based, human", "settings": "peptide 50 ug/ml, LPS 1 ug/ml, 6 h exposure", "description": "HUVECs were challenged with the peptide alone, peptide +LPS and LPS. LPS induces expression of VCAM-1 (lane 3).\nas §1"}, "[4]": {"system": "C57BL/6 on normal chow, LDL-R(null) mice", "assay": "Plasma cholesterol in C57BL/6 on normal chow and LDL-R(null) mice", "assay_type": "in vivo", "settings": "LDL-R(null) on normal chow or on a Western diet", "description": "Although Ac-hE-18A-NH2 enhanced the hepatic uptake and degradation of atherogenic lipoproteins in apo E null mice, dual knockout mice (LDL-R(null)-apo E(null)), and C57BL/6 on an atherogenic diet, the peptide had no effect on the plasma cholesterol levels of C57BL/6 on normal chow, LDL-R(null) on normal chow or on a Western diet. […] However, the peptide is able to associate with human LDL (containing apo B-100) and VLDL and is able to enhance uptake and degradation of atherogenic human lipoproteins in HepG2 cells and in LDL-R (null) mouse model (Garber, D. W. et al. Atherosclerosis. 163:229-237 2003). The reason for the difference in the properties of apo B-100-containing human LDL and mouse LDL is not clear."}, "[5]": {"system": "HepG2 cells", "assay": "Apo A-I / prebeta-HDL secretion by HepG2 cells", "assay_type": "cell-based"}, "[6]": {"settings": "experiments where atherogenic lipoprotein reduction was observed; CLiP; cited from earlier work"}, "[7]": {"system": "C57BL/6J mice fed an atherogenic diet", "assay": "Plasma cholesterol after one-time i.v. administration in C57BL/6J mice fed an atherogenic diet", "assay_type": "in vivo"}, "[8]": {"system": "human VLDL", "settings": "cited from earlier work"}, "[9]": {"system": "THP-1 monocyte derived macrophages", "assay": "Secretion of de novo synthesized apo E by THP-1 monocyte derived macrophages", "assay_type": "cell-based", "settings": "25 ug/10^6 cells, 35S-methionine, densitometry", "protocol": "Bands were developed by autoradiography and quantitated by densitiometry.\nTHP-1 monocyte derived macrophages were metabolically labeled with ^35S-methionine in RPMI medium containing FBS. Macrophages (10^6 cells) were treated with the dual-domain peptide (25 tjg/10^6 cells) for 5. Conditioned medium was collected and cells were washed with cold PBS. Preparative cocktail containing MEM, plus lupeptin (50 tjg/ml), pepstatin A (50 tjg/ml), and aprotinin (100 kallikrein inactivating units/ml) were added to the medium to preserve oxidative and proteolytic damage. The medium from control cells and peptide-treated medium were concentrated to equal volume and loaded quantitatively on SDS-polyacrylamide gels (4 to 20% PAGE for 2.5 h at 4° C. at 125 volts). The gel was exposed to x-ray film for overnight."}, "[10]": {"system": "WHHL rabbits", "assay": "Single bolus i.v. administration in WHHL rabbits", "assay_type": "in vivo, rabbit", "description": "100 μg of the ^125I-labelled peptide was mixed with 1 ml of plasma from 6 month old WHHL rabbit. After incubation for 1 h at room temperature, the plasma was subjected to CLiP analysis (66). Radioactivity in different fractions was determined and plotted on the CLiP profile. […] This improvement was associated with a reduction in 2 markers of oxidative stress.\nResults observed in HepG2 cells indicate that peptide associates with apo B-containing plasma lipoproteins to incorporate positive charges on the lipoprotein surface. This enables the apo B-containing lipoproteins to interact with heparan sulphate proteoglycans (HSPGs). The effect of these peptides on the mode of reduction of plasma cholesterol levels in mouse models and the two rabbit models can be determined. In NZW rabbits fed a 1% cholesterol-diet, a reduction of plasma cholesterol is observed which lasts for 14 days after the peptide administration; whereas in the WHHL rabbits, the reduction is initially rapid and returns to original levels within 3 days. Since the WHHL rabbit model is LDL-receptor defective, the differential effects of the peptide in two models can be due to differences in the receptor-mediated clearance pathways of atherogenic lipoproteins. HepG2 cells, primary hepatocytes from apo E null and LDL-R null mice, and primary rabbit hepatocytes can be used to determine the molecular factors in the receptor-mediated clearance pathways of atherogenic lipoproteins."}, "[11]": {"system": "apo E null mice", "assay": "Plasma cholesterol in apo E null mice after i.v. dual-domain peptides", "assay_type": "in vivo", "settings": "iv, n=4", "description": "The peptides represented are Ac-hE-18A-NH2, Ac-hE4F-NH2, and Ac-hE-Sc2F-NH2. Peptides Ac-hE-18A-NH2, Ac-hE-4F-NH2 and Ac-hE-Sc18A were administered (i.v.) to apo E null mice (n=4) and plasma cholesterol values were determined at before administration (0 min), 5 min and 2 h after administration.\nAs described above, peptides Ac-hE-18A-NH2, Ac-hE-4F-NH2 and Ac-hE-Sc18A were administered (iv) to apo E null mice (n=4) and plasma cholesterol values were determined at before administration (0 min), 5 min and 2 h after administration."}, "[12]": {"system": "MEF 1 cells with induced LDL receptors", "settings": "cited from earlier work"}, "[13]": {"settings": "3 mg/kg; 6 weeks of 1% cholesterol diet, one month after administration; not significantly different from control", "quoted_text": "For these studies, NZW rabbits that respond to diet can be selected. All animals are fed a 1% cholesterol diet and their cholesterol values determined three days after the diet initiation. Twenty rabbits with similar cholesterol levels can be selected and changed back to a normal diet. After 15 days on a normal diet, cholesterol values can once again be determined to check if the values returned to normal. Animals whose cholesterol values have not returned to pre-diet levels can be monitored until they are normalized or removed from the study. Ten rabbits in each group are selected and simultaneous peptide administration and 1% diet initiation can follow. […] To study dose-response effects, smaller number of animals (five in each group can be administered three doses of peptide (5 mg/kg, 3 mg/kg and 1.5 mg/kg). After the initial experiments, the dose of the peptide can be decided. A solution of the peptide (sterile saline) can be injected through the ear vein, once a week for the duration of the study (based on previous experience, for 6 weeks). The study parameters include total cholesterol, lipoprotein levels, LOOH levels, PON activity in the plasma. At the end of six weeks, the rabbits are euthanized and histology assessed."}, "[14]": {"settings": "peptide-associated VLDL, absence of apo E"}, "[15]": {"settings": "single bolus 15 mg/kg intravenous"}}, "data": [{"substance": "Ac-LRKLRKRLLRDWLKAFYDKVAEKLKEAF-NH2 [Ac-hE-18A-NH2]", "values": [{"measurement": "plasma clearance of the peptide", "setting": "3 mg/kg radiolabelled peptide", "value": "much faster than that observed in WHHL rabbits"}, {"measurement": "plasma residence time t1/2", "setting": "rabbits", "value": "1 to 2", "unit": "min"}, {"measurement": "effect on MCP-1", "setting": "[1]", "value": "also inhibited"}, {"measurement": "decreased lesion compared to control group", "setting": "[2]; 50 ug/mouse retroorbital, 3 times weekly, four weeks, sixteen week old female apo E null mice, en face, p<0.001", "value": 40, "unit": "%"}, {"measurement": "loss of animals / visible injury", "setting": "[2]; 12 retroorbital administrations, 50 ug/mouse", "value": "no loss of animals and no visible injury to animals was observed"}, {"measurement": "inhibition of LPS-induced VCAM-1 expression", "setting": "[3]", "value": "more than 80%"}, {"measurement": "effect on plasma cholesterol levels", "setting": "[4]", "value": "no effect"}, {"measurement": "prebeta-HDL production", "setting": "[5]; equal amount on weight basis (50 ug/ml), first overnight incubation", "value": "produced preβ-HDL"}, {"measurement": "prebeta-HDL amount after second and third overnight incubation", "setting": "[5]; fresh cell medium without peptide", "value": "produced significant amounts"}, {"measurement": "effect on HDL levels", "setting": "[6]", "value": "did not reduce HDL levels"}, {"measurement": "time for which lower total cholesterol levels were observed vs control", "setting": "[7]; 100 ug i.v. one time, continued atherogenic diet", "value": "≥ 8", "unit": "days"}, {"measurement": "initial decrease of plasma cholesterol", "setting": "[7]; 100 ug i.v., n=9", "value": "> 65", "unit": "%"}, {"measurement": "interaction with VLDL", "setting": "[8]", "value": "displacement of apo E from VLDL"}, {"measurement": "enhanced degradation of VLDL compared to VLDL alone", "setting": "[8]; [14]", "value": "three"}, {"measurement": "enhanced uptake of VLDL compared to VLDL alone", "setting": "[8]; [14]", "value": "six"}, {"measurement": "intensity of 36 kDa apo E band relative to medium of control cells", "setting": "[9]", "value": 4, "unit": "times"}, {"measurement": "time for plasma cholesterol to return to original levels", "setting": "[10]; WHHL rabbits", "value": "≤ 3", "unit": "days"}, {"measurement": "arterial endothelial function", "setting": "[10]; [15]", "value": "significantly improved"}, {"measurement": "formation of superoxide anion in arteries", "setting": "[10]; [15]", "value": "significantly reduced"}, {"measurement": "increase in HDL paraoxonase activity", "setting": "[10]; [15]", "value": 5, "unit": "fold"}, {"measurement": "plasma lipid hydroperoxide content", "setting": "[10]; [15]", "value": "reduced significantly"}, {"measurement": "plasma cholesterol levels at 18 h", "setting": "[10]; single bolus 15 mg/kg intravenous, reduced from 562±29 mg/dl", "value": "287 ± 22", "unit": "mg/dL"}, {"measurement": "reduction in plasma cholesterol levels at 2 h time point", "setting": "[11]", "value": "large reduction"}, {"measurement": "LDL internalization enhanced", "setting": "[12]", "value": "five"}, {"measurement": "average body weight", "setting": "[13]", "value": "4.8 ± 0.4", "unit": "kg"}, {"measurement": "average daily food intake", "setting": "[13]", "value": "0.17 ± 0.03", "unit": "kg"}]}]}
